Assay [1] deals with methicillin resistant Staphyloccocus aureus (MRSA, strain ATCC 700699). The assay can be described thus: MIC against methicillin resistant S. aureus (NCCLS dilution). It is filed as cell-based. Conditions: Staphylococcus aureus, serial two-fold dilutions, 96-well. The method, then: The sensitivity of methicillin resistant Staphyloccocus aureus (MRSA, strain ATCC 700699, American Type Culture Collection, Manassas, Va.) to the disclosed fabI inhibitors was followed by measuring the minimal inhibitory concentration (MIC) at varying inhibitor levels. This was performed according to NCCLS (National Center for Clinical Laboratory Standards) recommendations (NCCLS, 1997, METHODS FOR DILUTION ANTIMICROBIAL SUSCEPTIBILITY TESTS FOR BACTERIA THAT GROW AEROBICALLY, 4th ed.; approved standard. NCCLS document M7-A4. NCCLS, Wayne, Pa.), in 100 μl volume in 96-well format, with serial two-fold dilutions of drug concentration.

A further assay concerns the target T1, E. coli fabI (Escherichia coli, UniProt P0AEK4).
T1 construct: made in house; host or cells: E. coli BL21(DE3)
The assay can be described thus: fabI kinetic assay (NADH absorption at 340 nm, crotonoyl-CoA substrate). It is filed as biochemical. The method, then:
In order to perform more detailed kinetic assays on the disclosed compounds, additional purifed fabI was needed. The E. coli fabI gene was cloned into the pET30a expression vector (Novagen, Inc., Madison, Wis.) and expressed in E. coli BL21(DE3) cells. The purification procedure utilized chromatography with Q-sepharose, blue resin, and HA resin as follows.
Each cell pellet was suspended in a 4 fold-volume of lysis buffer (50 mM KH2PO4 pH 8.0, 100 mM NaCl, 2 mM ethylene glycol tetra-acetic acid (EGTA), and 10% glycerol). Cells were broken by passage through a Microfludics cell disrupter 4 times, and the cell lysate was centrifuged at 30,000×g for 20 minutes. The supernatant was applied to a Q-sepharose column pre-equilibrated in a buffer composed of 10 mM Tris-HCl pH 8.0, 0.1 mM EGTA, 1 mM phenylmethylsulfonylfluoride (PMSF), 100 mM NaCl, 10% glycerol, 0.1% β-mercaptoethanol, and 0.02% Brij 35. fabI was eluted with a NaCl gradient (0.1-1M) in the equilibration buffer. The major peak fractions were pooled and concentrated, then dialyzed overnight at 4° C. in 2 L of dialysis buffer (10 mM Tris-HCl pH 7.5, 0.1 mM EGTA, 0.1 mM PMSF, 10% glycerol, 0.1% β-mercaptoethanol, and 0.02% Brij 35). The dialyzed solution was centrifuged at 3,000×g for 20 minutes, and the supernatant was loaded on a blue resin column pre-equilibrated in a buffer composed of 10 mM Tris-HCl pH 7.5, 0.1 mM EGTA, 1 mM PMSF, 50 mM NaCl, 10% glycerol, 0.1% β-mercaptoethanol, and 0.02% Brij 35. fabI was eluted with the equilibration buffer containing NaCl (gradient 50˜1000 mM). The major peak fractions were pooled and dialyzed overnight at 4° C. in 2 L of the equilibration buffer as described above. Then the dialyzed solution was centrifuged at 3,000×g for 20 minutes, and the supernatant was further purified on a hydroxyapatite column pre-equilibrated in a buffer consisting of 20 mM KH2PO4 pH 8.0, 0.1 mM EGTA, 0.1 mM PMSF, 10% glycerol, 0.1% β-mercaptoethanol, and 0.02% Brij 35. fabI was eluted with a gradient of KH2PO4 up to 500 mM. The peak fractions were pooled and dialyzed in storage buffer (10 mM MOPS pH7.0, 150 mM NaCl, 0.1 mM EGTA, 50% glycerol, 0.02% Brij 35), then stored at −20° C.
The kinetic assay was used to confirm the activity of compounds identified by the single-point assay and screen and to measure the IC50 of compounds which inhibit fabI. It was performed in a 96 well microtiter dish. The final concentrations of each component in each 50 μl reaction are as follows—sodium phosphate pH 7.5, 100 mM; NADH, 200 uM; dithiothreitol (DTT), 1 mM; fabI, 3 ug/ml; crotonoyl-CoA, 0.8 mM.
A 2 ul volume of each compound to be tested was loaded into each well, followed by 30 ul Buffer A (sodium phosphate pH7.5, 100 mM; DTT, 1 mM; fabI, 5 ug/ml, obtained as described below). For IC50 measurements, the compound was tested in serial dilution. The reaction was initiated by adding 20 ul Buffer B (sodium phosphate pH7.5, 100 mM; NADH, 500 uM; DTT, 1 mM; and the substrate, crotonoyl-CoA, 2 mM). The reaction was monitored for 5.5 minutes on a spectrometer by measuring absorption at 340 nm. The rate of reduction of NADH in each reaction well was collected and the percentage inhibition was calculated by using SOFTmax® PRO software (Molecular Devices, Sunnyvale, Calif.). The percentage of inhibition of each compound was calculated according to following formula: Percentage Inhibition=100*(rate in the presence of compound-rate of negative control)/(rate of positive control-rate of negative control)
The negative control was the reaction of fabI in the presence of 2% DMSO but no inhibitory compounds, and the positive control was the mixture of the all reaction components excluding fabI.

For assay [2], the system named is strain of Staphylococcus aureus that under-expresses a fabI gene under control of a regulated promoter. The assay can be described thus: MIC in IPTG-regulated fabI under-expressing S. aureus strain. It is filed as cell-based. An excerpt: In general, a bacterial strain which is under-producing the target of interest will be more sensitive to test compounds than a wild-type strain if the compound is acting via inhibition of that target. Accordingly, a strain of Staphylococcus aureus that under-expresses a fabI gene under control of a regulated promoter was constructed.
First, the endogenous S. aureus fabI gene was replaced with a drug-resistance marker (erythromycin-resistance, erm^r) in a two-step allele-replacement procedure (see F. Fan et al., Plasmid, 2001, 46: 71-75). About 1 Kb of DNA sequence flanking each side of the S. aureus fabI gene (SwissProt Q9RMI3; M. Kuroda et al., Lancet 2001, 357:1225-1240) was PCR-amplified from genomic DNA, ligated to an erythromycin-resistance cassette by cross-over PCR (A. J. Link et al., J. Bacteriol., 1997, 179: 6228-6237), and cloned into an allele-replacement suicide vector carrying a kanamycin-resistance marker (kan^r) and the sacB gene encoding levansucrase. This allele-replacement plasmid was introduced by electroporation into an S. aureus host strain carrying the E. coli lactose operon repressor (lacI) and a lac-promoter driving T7 RNA polymerase production from the chromosome. Selection for kan^r yielded cells containing the entire plasmid by means of a single cross-over recombination. […]

The test system of assay [3] is fabI (acetate incorporation into fatty acids) in S. aureus strain ATCC 700699. Nature of the assay: 14C acetate incorporation into fatty acids in S. aureus. It is filed as cell-based. The conditions noted are these: 0.25x-2x MIC; 0-30 min at 37° C.; FIG. 1. The protocol:
Radioactive (14C) acetic acid was added to 0.4 uCi/ml. After incubation at 37° C. for 0, 5, 10, 15, and 30 minutes, samples were taken, and cells were added to ice cold 10% trichloroacetic acid (TCA) for 30 min. Next, cells were filtered (Millipore MultiScreen-FC filters), washed 2× with 200 ul and 1× with 100 ul cold 10% TCA followed by 2× with 200 ul and 1× with 100 ul cold water. The filters were added to 5 ml scintillation fluid and counts per minute were measured in a scintillation counter. The % inhibition of acetate incorporation into fatty acids was determined by comparison to a control consisting of cells not treated with inhibitor.

Molecules are shown by their SMILES. pIC50: −log10 of the molar value. Values after ≈ are worked out from the molar mass of the structure shown. Where two headings read alike, the source gives them in different places.

As usually defined, the pIC50 is the IC50 on a negative log10 scale, so that one unit is a factor of ten.

T1 sequence (P0AEK4 whole entry): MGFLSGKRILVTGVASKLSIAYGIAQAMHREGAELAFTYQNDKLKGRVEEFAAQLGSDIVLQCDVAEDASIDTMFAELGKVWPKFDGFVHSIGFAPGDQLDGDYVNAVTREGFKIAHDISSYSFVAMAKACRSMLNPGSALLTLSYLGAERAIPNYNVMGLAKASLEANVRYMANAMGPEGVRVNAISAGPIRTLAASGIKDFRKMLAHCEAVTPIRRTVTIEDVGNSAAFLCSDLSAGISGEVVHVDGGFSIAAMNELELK

Consider `CC(C)NC(=O)CSc1nc(-c2cccs2)cc(-c2ccc(F)cc2)c1C#N` [B], for which the MIC in assay [1] was greater than 64 µg/mL. On E. coli fabI, this compound had a pIC50 of 4.92.

As to `N#Cc1c(-c2cccs2)cc(-c2cccs2)nc1SCc1ccc(C(=O)O)cc1` [Compound A], the MIC was 8 µg/mL in assay [2] (read-out: minimum inhibitory concentration (MIC), fabI regulated by IPTG, before the inducer (IPTG) level was reduced); 4 µg/mL in assay [2] (read-out: minimum inhibitory concentration (MIC), fabI regulated by IPTG, inducer (IPTG) level reduced); 2 µg/mL (≈ 4.6 µM) in assay [1]. For the same compound, the pIC50 against E. coli fabI is 5.40. Also, in assay [3], the “inhibition of acetate incorporation into fatty acids (activity of fabI)” value is “marked inhibition”.

For the compound `N#Cc1c(-c2cccs2)cc(-c2cccs2)nc1SC(C(=O)O)c1ccccc1` (centres unmarked) [Compound C], the MIC in assay [1] is 32 µg/mL (≈ 73.6 µM). Also, the pIC50 against E. coli fabI was 4.91.

Consider `COc1ccc(NC(=O)CSc2nc(-c3cccs3)cc(-c3ccc(F)cc3)c2C#N)cc1OC` [D], for which, in assay [1], the MIC was greater than 64 µg/mL. For the same compound, the pIC50 on E. coli fabI was 5.04.

For the compound `N#Cc1c(-c2cccs2)cc(-c2cccs2)nc1SCCc1ccc(C(=O)O)cc1` [E], the MIC in assay [1] turned out to be 0.75 µg/mL (≈ 1.67 µM). The compound also showed a pIC50 against E. coli fabI of 5.52.

For `CC(Sc1nc(-c2cccs2)cc(-c2cccs2)c1C#N)c1ccc(C(=O)O)cc1` (centres unmarked) [F], in assay [1], the MIC came out at 0.75 µg/mL (≈ 1.67 µM). The same compound had a pIC50 at E. coli fabI of 5.52.

In the case of `N#Cc1c(-c2cccs2)cc(-c2cccs2)nc1SCc1cccc(C(=O)O)c1` [G], the MIC in assay [1] was found to be 1.5 µg/mL (≈ 3.45 µM). For the same compound, the pIC50 against E. coli fabI is 5.22.

The compound `N#Cc1c(-c2cccs2)cc(-c2cccs2)nc1SCc1ccc(CC(=O)O)cc1` [H] had an MIC in assay [1] of 4 µg/mL (≈ 8.92 µM). This compound showed a pIC50 at E. coli fabI of 4.60.

In assay [1], `COc1ccc(-c2cc(-c3ccco3)c(C#N)c(SCc3ccc(C(=O)O)cc3)n2)cc1` [I] had an MIC of 8 µg/mL (≈ 18.1 µM). At E. coli fabI, this compound showed a pIC50 of 4.60.

In assay [1], `CC(C)NC(=O)CSc1nc(-c2cccs2)cc(-c2ccc(Cl)cc2)c1C#N` [N] yielded an MIC greater than 64 µg/mL. The compound further had a pIC50 at E. coli fabI of 4.34.

Turning to `N#Cc1c(-c2cccs2)cc(-c2cccs2)nc1SCCC(=O)O` [P], the negative logarithm of the IC50 (pIC50) at E. coli fabI (purified E. coli fabI 3 ug/ml, NADH 200 uM, crotonoyl-CoA 0.8 mM, pH 7.5, read-out: IC50) is 4.06.

The compound `N#Cc1c(-c2ccc(Cl)cc2)cc(-c2cccs2)nc1SCC(N)=O` [Q] displayed an MIC in assay [1] greater than 64 µg/mL. At E. coli fabI, this compound showed a pIC50 of 4.48.

These data come from US20070027190A1, “Antibacterial fab i inhibitors” (priority 2003, published 2007).
